Test results taken from patent publication US20250129109A1.

Legend:
[1] = system: human gingival fibroblast cells (HGF-1); experiment: Cell cytotoxic test, human gingival fibroblast cells; conditions: HGF-1 cells; IC50 as silver concentration
[2] = system: stem cells from human exfoliated deciduous teeth (SHED1); experiment: Cell cytotoxic test, stem cells from human exfoliated deciduous teeth; conditions: IC50 as silver concentration

C1N2CN3CN1CP(C2)C3.C1N2CN3CN1CP(C2)C3.[Ag+].[F-] [SCF, [Ag(1,3,5-triaza-7-phosphaadamantane)2]F]
IC50 against HGF-1 (cell cytotoxicity) [1]: 43.98±12.80 ppm | IC50 against SHED1 (cell cytotoxicity) [2]: 34.54±5.09 ppm
